{"source": "patent US20250387410A1", "about": "“TREATMENT OF ANTI-VEGF REFRACTORY OPHTHALMIC RETINAL EYE CONDITIONS” (Eye Co Pty Ltd., priority 2022, published 2025)", "key": {"[1]": {"tested_on": "subjects with geographic atrophy (GA) secondary to AMD", "test": "Phase 1b single-dose dose-escalation intravitreal trial in geographic atrophy", "type": "in vivo, human", "procedure": "To evaluate the safety and tolerability of a single-dose intravitreal (IVT) injection of 1 mg/0.1 mL and 2 mg/0.1 mL Fludrocortisone acetate (FCA) in subjects with geographic atrophy (GA) secondary to Age-Related Macular Degeneration (AMD).\nMethods: This was a two-part dose-escalation prospective study. Part-1 involved a single participant treated with 1 mg/0.1 ml and monitored up to 28-days before being reviewed by a safety review committee. Two subsequent participants were then dosed with the same dose. Part-2 involved a single participant dosed with 2 mg/0.1 ml and monitored up to 28-days when a further 5 participants were dosed. All participants were followed up for 6-months after baseline.\nA full ophthalmic assessment was performed at study visits which included GA area, best-corrected visual acuity (BCVA), low-luminance BCVA and intra-ocular pressure (IOP). Adverse events (AE) were reported from the first dose of FCA until the end-of-study visit.\nThis single-centre, phase 1b prospective, open-labeled, single-dose, dose-escalation clinical trial was conducted on 9 participants enrolled at a single site between August 2019 to April 2021. All patients were followed up for 6 months after baseline. Ethics approval was obtained before commencement and the trial was listed on the Australian and New Zealand Clinical Trial Registry (accessible via www.anzctr.org.au; ANZCTR no. 12618001308280). An independent data and safety committee provided oversight of the clinical trial. This study adhered to the tenets of the Declaration of Helsinki. Informed consent was obtained from all participants before enrolment into the study.\nFludrocortisone acetate was formulated for intravitreal administration as a powder solution for injection to ensure long-term stability similar to other cortico-steroids (15). Vials contained 10 mg of FCA powder and were reconstituted with sterile sodium chloride solution (0.9%) according to the appropriate dosage prior to injection.\nInclusion criteria referring the study eye were as follows: diagnosis of GA secondary to AMD confirmed using fundus autofluorescence (FAF) imaging, GA area between ≥1.9 and ≤17 mm2 (1 and 7 disc areas (DA) respectively), best corrected visual acuity (BCVA) of 24 letters or better using Early Treatment Diabetic Retinopathy Study (ETDRS) charts.\nA full ophthalmic assessment was performed at each study visit which included GA area assessed through FAF imaging, BCVA, lower-luminance BCVA (LL-BCVA) and intra-ocular pressure (IOP). Participants were assessed at screening, baseline, day 1, day 7, day 14, day 28, day 60, day 90 and day 150 (end of study). Blood and urine samples were collected for safety analysis at screening, baseline, day 7, day 28 and day 150.\nPart 1 of the study involved a single participant treated with 1 mg/0.1 ml FCA to assess safety and tolerability. This participant was followed-up for 28 days before the results were reviewed by an independent data safety monitoring committee (DSMB). Subsequent to approval by the DSMB, a further 2 participants were treated with 1 mg/0.1 ml FCA and followed-up for a further 28 days after treatment before commencement of part 2.\nPart 2 involved a single dose of 2 mg/0.1 ml of FCA in a single participant and followed-up for 28 days like part 1. The DSMB reviewed the results prior to enrolment of the remaining 5 participants.\nFundus auto-fluorescence was captured using Heidelberg Spectralis (Heidelberg Engineering, Heidelberg, Germany). The assessment of GA size and progression was performed using FAF was performed by 2 graders (T.H and E.C.) in a blinded manner using Heidelberg region finder software version 2.6.2.0 (FIG. 1), a semi-automated program used to quantify atrophic areas. Baseline FAF images were defined and used to assess subsequent visits using the region finder software. In cases where there was a discrepancy of more than 20% between the two graders, a third grader (A.C.) evaluated the images. […]"}, "ARPE19 cells": {"tested_on": "ARPE19 cells", "test": "MTT assay, cell viability of ARPE19 cells", "type": "cell-based, human", "description": "The immortalised retinal cells used were as follows: MIO-M1 cells (Muller cell-derived; Müller 1 Moorefields, Institute of Ophthalmology, Dr A. Limb, Institute of Ophthalmology, University College, UK); ARPE19 (RPE-derived; ATCC CRL-2302, American Tissue Culture Collection, VA, USA); and 661W cells (photoreceptor-like derived; kindly gifted by Dr Muayyad R. Al-Ubaidi, Department of Cell Biology, University of Oklahoma Health Sciences Centre, Oklahoma City, OK, USA). Cells were authenticated and validated from Cell Bank Australia.\nThe immortalised retinal cell lines MIO-M1, 661W and ARPE19 were used to undertake the MTT assay to assess cell metabolic activity, based on the cell's availability of NAPDH. Treatments included exposure to one of FA (10-0.01 μg/μl, provided by Professor Ben Boyd, Monash University, Australia), TA (10-0.01 μg/p, Honeywell, USA) and Dexamethasone (10-0.0001 μg/μl, Sigma-Aldrich, MO, USA). All corticosteroids used in vitro were dissolved in 20% dimethyl sulfoxide (DMSO) (Sigma-Aldrich, MO, USA) and ultrapure endotoxin 0.1M PBS (Thermo Fisher Scientific, MA, USA). At the 12-hour time point following addition of the corticosteroid, 10p of MTT reagent (Roche, Switzerland) was added to each well. To protect against light, plates were wrapped in foil and stored in the dark at 37° C. for 4 hours at 5.0% CO2. Cells were monitored using a bright field Zeiss Axiovert 200 inverted microscope (Carl Zeiss Meditec, Dublin, CA. USA) for formation of insoluble purple formazan precipitate crystals in viable cells. Subsequently 100p of MTT solubilisation solution was added and once again incubated in darkness at 37° C., 5.0% CO2 for 24 hours. Quantification of the MTT assay was performed by measuring the absorbance at 570 nm using Tecan Infinite® 200 PRO (Tecan, Mannedorf, Switzerland)."}, "[2]": {"details": "fellow (uninjected) eye of treated participants, day 150"}}, "note": "“And” between values parts separate entries of the source, which are not always exact repeats. Equal values may be shown once. “Also recorded” adds a separate entry of the source.", "data": [{"smiles": "CC(=O)OCC(=O)[C@@]1(O)CC[C@H]2[C@@H]3CCC4=CC(=O)CC[C@]4(C)[C@@]3(F)[C@@H](O)C[C@@]21C", "note": "[FA, 9-α-Fluoro-11 β. 17 α, 21-trihydroxy-4-pregnene-3, 20 dione acetate]", "values": [{"measurement": "loss of BCVA letters in the initial pilot participant", "setting": "[1]; 1 mg/ml, day 14, one participant, deemed most likely unrelated by the DSMB", "result": 22, "unit": "letters"}, {"measurement": "adverse event in one participant", "setting": "[1]; 2 mg/ml, after day 90, study eye, resolved after 1 week", "result": "nasal subconjunctival haemorrhage"}, {"measurement": "other adverse events throughout the study", "setting": "[1]; all 9 participants", "result": "No other adverse events"}, {"measurement": "systemic adverse event", "setting": "[1]; dose escalation study, 9 participants", "result": "no systemic adverse event"}, {"measurement": "BCVA mean change from baseline, fellow eye", "setting": "[1]; [2]", "result": "4.88 ± 8.37", "unit": "letters"}, {"measurement": "IOP mean change from baseline, fellow eye", "setting": "[1]; [2]", "result": "−0.625 ± 4.24", "unit": "mmHg"}, {"measurement": "LLVA mean change from baseline, fellow eye", "setting": "[1]; [2]", "result": "4.5 ± 11.49", "unit": "letters"}, {"measurement": "GA area mean change from baseline, fellow eye", "setting": "[1]; fellow (uninjected) eye of treated participants, over 6 months, listed as FCA", "result": "0.62 mm^2 and 0.62 ± 4.49 mm^2"}, {"measurement": "clinical safety and tolerability", "setting": "[1]; intravitreal, patients with GA secondary to AMD", "result": "clinically safe and well-tolerated"}, {"measurement": "serious AEs (ocular or systemic)", "setting": "[1]; single IVT 1 mg/0.1 ml or 2 mg/0.1 ml, 9 participants, 6 months", "result": "no serious AEs"}, {"measurement": "cataract development / lens opacity", "setting": "[1]; single IVT 1 or 2 mg/0.1 ml, 6 months follow-up, no formal lens grading, listed as FCA", "result": "no participants required/underwent cataract surgery; also recorded: not observed; also recorded: no evidence"}, {"measurement": "increase of IOP", "setting": "[1]; single IVT 1 or 2 mg/0.1 ml, study eye, 6 months follow-up, listed as FCA", "result": "No significant increases; also recorded: not observed; also recorded: did not increase; also recorded: no evidence"}, {"measurement": "IOP mean change from baseline, study eye", "setting": "[1]; study eye, day 150 compared to baseline, listed as FCA", "result": "−0.25 mmHg and −0.25 ± 4.06 mmHg"}, {"measurement": "GA area mean change from baseline, study eye", "setting": "[1]; study eye, over 6 months, FAF region finder, listed as FCA", "result": "0.5 mm^2 and 0.5 ± 5.69 mm^2"}, {"measurement": "changes in body temperature, heart rate, systolic or diastolic blood pressure", "setting": "[1]; throughout the study", "result": "no significant changes"}, {"measurement": "viability of ARPE19 cells at 1 μg/μl", "setting": "ARPE19 cells; 1 μg/μl", "result": "does not significantly alter cell viability"}, {"measurement": "viability of ARPE-19 cells (MTT assay)", "setting": "ARPE19 cells; 10-0.01 μg/μl, 12 h, compared to DMSO-only group", "result": "do not induce toxicity; also recorded: no significant effect"}]}]}
